From PubChem BioAssay AID330 (DTP/NCI, 2004)
“And” between values parts separate entries of the source, which are not always exact repeats. Equal entries are not always repeated. Inconclusive results and toxic doses are left out.

System: P388 leukemia ip, CD2F1 mice, survival T/C
Assay: NCI In Vivo Anticancer Drug Screen. Data for tumor model P388 Leukemia (intraperitoneal) in CD2F1 (CDF1) mice
Conditions: endpoint: median survival time, higher = longer survival
Summary of the method: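 Mice carrying the transplanted tumor received test compound or vehicle. Survival was recorded in each group, and the value is the treated-group measurement divided by that of the vehicle-treated control group.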

[1] = dose: 100.0 mg/kg/injection, schedule: Q01DX001 (ip), vehicle: saline
[2] = dose: 50.0 mg/kg/injection, schedule: Q01DX005 (ip), vehicle: Klucel (hydroxypropylcellulose) (HPC)
[3] = dose: 100.0 mg/kg/injection, schedule: Q01DX005 (ip), vehicle: Klucel (hydroxypropylcellulose) (HPC)
[4] = dose: 200.0 mg/kg/injection, schedule: Q01DX005 (ip), vehicle: Klucel (hydroxypropylcellulose) (HPC)
[5] = dose: 50.0 mg/kg/injection, schedule: Q01DX005 (ip), vehicle: saline
[6] = dose: 100.0 mg/kg/injection, schedule: Q01DX005 (ip), vehicle: saline
[7] = dose: 200.0 mg/kg/injection, schedule: Q01DX005 (ip), vehicle: saline
[8] = dose: 60.0 mg/kg/injection, schedule: Q01DX005 (ip), vehicle: saline with Tween-80
[9] = dose: 240.0 mg/kg/injection, schedule: Q01DX005 (ip), vehicle: saline with Tween-80
[10] = dose: 50.0 mg/kg/injection, schedule: Q01DX009 (ip), vehicle: saline with Tween-80
[11] = dose: 100.0 mg/kg/injection, schedule: Q01DX009 (ip), vehicle: saline with Tween-80
[12] = dose: 200.0 mg/kg/injection, schedule: Q01DX009 (ip), vehicle: saline with Tween-80
[13] = dose: 50.0 mg/kg/injection, schedule: Q01DX005 (ip), vehicle: saline with Tween-80
[14] = dose: 100.0 mg/kg/injection, schedule: Q01DX005 (ip), vehicle: saline with Tween-80
[15] = dose: 25.0 mg/kg/injection, schedule: Q01DX009 (ip), vehicle: saline with Tween-80

SMILES: O=C(O)C1=CO[C@@H](OC2OC(CO)C(O)C(O)C2O)[C@H]2[C@@H]1C=C[C@]2(O)CO (stereo partly specified)
- T/C (dose: 4.68 mg/kg/injection, schedule: Q01DX009 (ip), vehicle: Klucel (hydroxypropylcellulose) (HPC)): 101 % of control
- T/C (dose: 9.37 mg/kg/injection, schedule: Q01DX009 (ip), vehicle: Klucel (hydroxypropylcellulose) (HPC)): 97 % of control
- T/C (dose: 18.75 mg/kg/injection, schedule: Q01DX009 (ip), vehicle: Klucel (hydroxypropylcellulose) (HPC)): 97 % of control
- T/C (dose: 37.5 mg/kg/injection, schedule: Q01DX009 (ip), vehicle: Klucel (hydroxypropylcellulose) (HPC)): 94 % of control
- T/C (dose: 75.0 mg/kg/injection, schedule: Q01DX009 (ip), vehicle: Klucel (hydroxypropylcellulose) (HPC)): 98 % of control and 90 % of control
- T/C (dose: 150.0 mg/kg/injection, schedule: Q01DX009 (ip), vehicle: Klucel (hydroxypropylcellulose) (HPC)): 97 % of control

SMILES: CNC(=O)OCc1c(COC(=O)NC)c(-c2ccc(S(=O)(=O)c3ccccc3)cc2)n(C)c1C
- T/C (dose: 12.5 mg/kg/injection, schedule: Q01DX009 (ip), vehicle: distilled water + Tween-80): 154 % of control
- T/C (dose: 40.0 mg/kg/injection, schedule: Q01DX009 (ip), vehicle: distilled water + Tween-80): 153 % of control
- T/C (dose: 50.0 mg/kg/injection, schedule: Q01DX009 (ip), vehicle: distilled water + Tween-80): 100 % of control
- T/C (dose: 80.0 mg/kg/injection, schedule: Q01DX009 (ip), vehicle: distilled water + Tween-80): 153 % of control

SMILES: CC1(C)OC2OC(C3CSC(=S=O)S3)C(O)C2O1 (stereo unspecified)
- T/C (dose: 12.5 mg/kg/injection, schedule: Q01DX005 (ip), vehicle: Klucel + Tween-80): 95 % of control
- T/C (dose: 25.0 mg/kg/injection, schedule: Q01DX005 (ip), vehicle: Klucel + Tween-80): 100 % of control
- T/C (dose: 50.0 mg/kg/injection, schedule: Q01DX005 (ip), vehicle: Klucel + Tween-80): 103 % of control

SMILES: CN(CC(O)C(O)C(O)C(O)CN(C)N=O)N=O (stereo unspecified)
- T/C [1]: 115 % of control
- T/C (dose: 200.0 mg/kg/injection, schedule: Q01DX001 (ip), vehicle: saline): 100 % of control
- T/C (dose: 400.0 mg/kg/injection, schedule: Q01DX001 (ip), vehicle: saline): 110 % of control

SMILES: C[C@]12CC[C@H](OC(=O)/C=C\c3ccccc3N(CCCl)CCCl)CC1CC[C@@H]1C2CC[C@]2(C)NC(=O)CCC12 (stereo partly specified)
- T/C (dose: 100.0 mg/kg/injection, schedule: Q01DX001 (ip), vehicle: saline with Tween-80): 105 % of control and 120 % of control
- T/C (dose: 200.0 mg/kg/injection, schedule: Q01DX001 (ip), vehicle: saline with Tween-80): 118 % of control

SMILES: Nc1ccc2cc(Cl)[nH]c(=O)c2c1
- T/C [2]: 100 % of control
- T/C [3]: 94 % of control
- T/C [4]: 97 % of control

SMILES: CCN(CC)CCCN1CC(=O)N2CCCCN2C(=O)C1
- T/C [5]: 102 % of control
- T/C [6]: 100 % of control
- T/C [7]: 100 % of control

SMILES: COC(=O)C1OC(SCCN)C(O)C(O)C1O (stereo unspecified)
- T/C (dose: 50.0 mg/kg/injection, schedule: Q01DX009 (ip), vehicle: water): 100 % of control
- T/C (dose: 100.0 mg/kg/injection, schedule: Q01DX009 (ip), vehicle: water): 102 % of control
- T/C (dose: 200.0 mg/kg/injection, schedule: Q01DX009 (ip), vehicle: water): 91 % of control

SMILES: COc1cccc(C(=O)c2ccc(OC)cc2C(=O)O)c1
- T/C [2]: 95 % of control
- T/C [3]: 101 % of control
- T/C [4]: 97 % of control

SMILES: CCOc1ccc(-n2cnc3c(=O)[nH]c(N)nc32)cc1
- T/C (dose: 15.0 mg/kg/injection, schedule: Q01DX005 (ip), vehicle: saline with Tween-80): 90 % of control
- T/C (dose: 30.0 mg/kg/injection, schedule: Q01DX005 (ip), vehicle: saline with Tween-80): 91 % of control
- T/C [8]: 86 % of control and 90 % of control
- T/C [9]: 102 % of control

SMILES: COc1ccc(-c2cc3cc(OC)c(OC)cc3cn2)cc1OC
- T/C (dose: 6.25 mg/kg/injection, schedule: Q01DX009 (ip), vehicle: suspension in saline): 99 % of control
- T/C (dose: 12.5 mg/kg/injection, schedule: Q01DX009 (ip), vehicle: suspension in saline): 98 % of control
- T/C (dose: 25.0 mg/kg/injection, schedule: Q01DX009 (ip), vehicle: saline): 98 % of control
- T/C (dose: 25.0 mg/kg/injection, schedule: Q01DX009 (ip), vehicle: suspension in saline): 97 % of control
- T/C (dose: 50.0 mg/kg/injection, schedule: Q01DX009 (ip), vehicle: saline): 90 % of control

SMILES: CC(O)C(=O)N1Cc2cc3ccccc3nc2C1 (stereo unspecified)
- T/C (dose: 4.0 mg/kg/injection, schedule: Q01DX009 (ip), vehicle: saline with Tween-80): 94 % of control
- T/C (dose: 8.0 mg/kg/injection, schedule: Q01DX009 (ip), vehicle: saline with Tween-80): 89 % of control
- T/C (dose: 16.0 mg/kg/injection, schedule: Q01DX009 (ip), vehicle: saline with Tween-80): 92 % of control
- T/C (dose: 32.0 mg/kg/injection, schedule: Q01DX009 (ip), vehicle: saline with Tween-80): 90 % of control
- T/C (dose: 64.0 mg/kg/injection, schedule: Q01DX009 (ip), vehicle: saline with Tween-80): 91 % of control

SMILES: CCOP(=O)(O)SP(=O)(O)OCC.CCOP(=O)(O)SP(=O)(O)OCC.[Co]
- T/C (dose: 50.0 mg/kg/injection, schedule: Q01DX001 (ip), vehicle: saline): 105 % of control
- T/C [1]: 104 % of control and 111 % of control

SMILES: N#Cc1cnn(-c2cccc(Cl)c2)c1-n1cccc1
- T/C [10]: 100 % of control
- T/C [11]: 100 % of control
- T/C [12]: 93 % of control

SMILES: CCN(CC)C(=O)C(F)Cl (stereo unspecified)
- T/C [8]: 88 % of control
- T/C (dose: 120.0 mg/kg/injection, schedule: Q01DX005 (ip), vehicle: saline with Tween-80): 88 % of control
- T/C [9]: 95 % of control

SMILES: CNC(=O)OCC1=C([Si](C)(C)C)C(=O)C(OC)=C(OC)C1=O
- T/C [13]: 98 % of control
- T/C [14]: 100 % of control

SMILES: O=C1CCCSc2ccccc21
- T/C [15]: 100 % of control
- T/C [10]: 94 % of control
- T/C [11]: 102 % of control
- T/C [12]: 106 % of control

SMILES: c1ccc(OC2CCCCC2N2CCOCC2)cc1 (stereo unspecified)
- T/C (dose: 50.0 mg/kg/injection, schedule: Q01DX009 (ip), vehicle: suspension in saline): 87 % of control
- T/C (dose: 100.0 mg/kg/injection, schedule: Q01DX009 (ip), vehicle: suspension in saline): 87 % of control
- T/C (dose: 200.0 mg/kg/injection, schedule: Q01DX009 (ip), vehicle: suspension in saline): 94 % of control

SMILES: COc1ccc(CC2C(=O)OC(=O)C2Cc2ccc(OC)c(OC)c2)cc1OC (stereo unspecified)
- T/C (dose: 100.0 mg/kg/injection, schedule: Q04DX003 (ip), vehicle: saline with Tween-80): 100 % of control
- T/C (dose: 200.0 mg/kg/injection, schedule: Q04DX003 (ip), vehicle: saline with Tween-80): 90 % of control
- T/C (dose: 400.0 mg/kg/injection, schedule: Q04DX003 (ip), vehicle: saline with Tween-80): 100 % of control

SMILES: COc1cc2cc(c1Cl)N1CC(O)C(C)(O)C(=O)NC(C)C(=O)OC(CC1=O)C1(C)OC1C(C)C1CC(O)(NC(=O)O1)C(OC)/C=C\C=C(\C)C2OC (stereo unspecified)
- T/C (dose: 7.75 micrograms/kg/injection, schedule: Q01DX009 (ip), vehicle: none): 153 % of control
- T/C (dose: 15.5 micrograms/kg/injection, schedule: Q01DX009 (ip), vehicle: none): 159 % of control

SMILES: Cc1nn(C(=O)c2cccnc2)c(-c2ccccc2)c1N=Nc1ccc(C(=O)O)cc1
- T/C [13]: 93 % of control
- T/C [14]: 93 % of control

SMILES: COC(C)C(Br)C(=O)NN=C(c1ccccc1)c1ccccc1 (stereo unspecified)
- T/C (dose: 100.0 mg/kg/injection, schedule: Q04DX003 (ip), vehicle: saline): 95 % of control
- T/C (dose: 200.0 mg/kg/injection, schedule: Q04DX003 (ip), vehicle: saline): 93 % of control
- T/C (dose: 400.0 mg/kg/injection, schedule: Q04DX003 (ip), vehicle: saline): 95 % of control

SMILES: CCCCCCC(=O)/C=C/c1cc(OC)cc(OC)c1
- T/C [10]: 96 % of control
- T/C [11]: 103 % of control
- T/C [12]: 91 % of control

SMILES: CCCCN(CCCC)c1ccc(C(=N)c2ccc(N(C)C)cc2)cc1
- T/C (dose: 6.25 mg/kg/injection, schedule: Q01DX005 (ip), vehicle: Klucel (hydroxypropylcellulose) (HPC)): 106 % of control
- T/C (dose: 12.5 mg/kg/injection, schedule: Q01DX005 (ip), vehicle: Klucel (hydroxypropylcellulose) (HPC)): 106 % of control

SMILES: Cc1cc(/C=C\c2ccc3ccccc3[n+]2C)c(O)c2ncccc12
- T/C (dose: 12.5 mg/kg/injection, schedule: Q01DX009 (ip), vehicle: saline with Tween-80): 114 % of control
- T/C [15]: 106 % of control

SMILES: CC(C)(C)OC(=O)NC(CCCCN)C(=O)O (stereo unspecified)
- T/C [5]: 103 % of control
- T/C [6]: 100 % of control
- T/C [7]: 100 % of control
